Literature values in patent US20240261224A1, “FORMULATION OF A PAN-JAK INHIBITOR” (KINASET THERAPEUTICS, INC., priority 2022, published 2024).
Like-named read-outs stand apart in the source and are kept apart here. Marks after values point to notes of the source that are not given here.

Assays:
[1] = test system: fractional exhaled nitric oxide (FeNO); details: cited from earlier work
[2] = marketed DPI; cited from earlier work

Row | Structure (SMILES) | Mean placebo-corrected FeNO reduction ([1]; 1.0 mg QD, 1 capsule per dose, an increase in FeNO was observed) [%*] | Mean placebo-corrected FeNO reduction ([1]; 4.0 mg QD, 4 capsules per dose) [%] | Mean placebo-corrected FeNO reduction ([1]; 15.0 mg BID, 30 capsules per dose) [%] | Mean placebo-corrected FeNO reduction ([1]; 15.0 mg QD, 15 capsules per dose) [%] | MMAD (μm) [2]
1 | CN(CCC#N)C1CCN(C(=O)Cn2cc(NC(=O)c3cnn4cccnc34)c(-c3cc(Cl)ccc3OC(F)F)n2)CC1 [GDC-0214] | 0.4 | −6.5 | −42 | −23 | –
2 | CCC(=O)O[C@]1(C(=O)SCF)[C@H](C)C[C@H]2[C@@H]3C[C@H](F)C4=CC(=O)C=C[C@]4(C)[C@@]3(F)[C@@H](O)C[C@@]21C [fluticasone propionate] | – | – | – | – | 6-7 μm
